# Results as given in patent US20260116845A1, “LIPIDS AND COMPOSITIONS THEREOF” (Kernal Biologics, Inc., priority 2023, published 2026).
# Key:
# AML12 Cell Line = experiment: Transfection of AML12 Cell Line with FLuc mRNA LNPs (ONE-Glo EX luciferase signal); format: cell-based; settings: 200 ng Fluc mRNA-LNP, 24 hours
# Method in brief: (§1)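 Firefly luciferase luminescence measured 24 h after transfection with 200 ng mRNA-LNP per well in Opti-MEM. Seeding: 5,000 cells/well for B16F10 and MC38.K, 20,000 for AML12. LNPs were pre-incubated 30 min with mouse serum; mRNA content determined by RiboGreen.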
# B16F10 Cell Line = experiment: Transfection of B16F10 Cell Line with FLuc mRNA LNPs (ONE-Glo EX luciferase signal); format: cell-based; settings: 200 ng Fluc mRNA-LNP, 24 hours
# Method in brief: as §1
# MC38.K Cell Line = experiment: Transfection of MC38.K Cell Line with FLuc mRNA LNPs (ONE-Glo EX luciferase signal); format: cell-based; settings: 200 ng Fluc mRNA-LNP, 24 hours; for Total Luciferin Signal (RLU) In Vitro - MC38.K: Table 4; for Total Luciferin Signal (RLU) In Vitro-MC38: Table 5
# Method in brief: as §1
# Liver = experiment: Ex-vivo luminescence signal from liver after IV Fluc mRNA LNPs in CD1 mice (IVIS); settings: tail vein 1.0 mg/kg Day 0 and Day 2, imaging 18 hours after second dose; for Total Liver Tissue Luciferin Signal (Photons/s) Ex-vivo - CD1: Table 4; for Total Liver Tissue Luciferin Signal (Photons/s) In Vivo-Cd1: Table 5
# Spleen = experiment: Ex-vivo luminescence signal from spleen after IV Fluc mRNA LNPs in CD1 mice (IVIS); settings: tail vein 1.0 mg/kg Day 0 and Day 2, imaging 18 hours after second dose, Table 5
# C57BL/6 mice = experiment: Multi-dose tolerability screening of NT-beta-Actin mRNA LNPs in MC38.K-inoculated C57BL/6 mice; format: in vivo; settings: C57BL/6 mice with MC38.K, 1.0 mg/kg IV twice a week for two weeks
# Method: NT-beta-Actin mRNA LNPs with different ionizable lipids were administered IV to C57BL/6 mice, inoculated with MC38.K cells, via the tail vein for a total of four doses (twice a week for two consecutive weeks) at a concentration of 1.0 mg/kg. Bodyweights were monitored and blood was collected pre-dose, 24 hours post first dose, 24 hours post fourth dose, and analyzed for cytokines, blood chemistry, and liver/spleen weights. Compounds 23, 99 and 101 were formulated using a peripheral process method. C57BL/6 mice were inoculated with MC38.K cells. Once tumors had grown, 1.0 mg/kg (Beta-Actin mRNA) of each LNP was intravenously administered twice a week for two weeks. […] N=6 per group for bodyweights, N=3 for blood analysis. Mean+/−SD.
compound,measurement,setting,value
"CCCCCCCCC(CCCCCCCCF)OC(=O)CCCCCN(CCO)CCCCC(C)C(=O)OCCCCCCCCCCC(C)C (centres unmarked) [Compound 65, 11-methyldodecyl 6-((6-((1-fluoroheptadecan-9-yl)oxy)-6-oxohexyl)(2-hydroxyethyl)amino)-2-methylhexanoate]",Total Luciferin Signal (RLU) In Vitro - AML12,AML12 Cell Line; Table 4,3.24E+05 RLU
same,Total Luciferin Signal (RLU) In Vitro - B16F10,B16F10 Cell Line; Table 4,3.78E+05 RLU
same,Total Luciferin Signal (RLU) In Vitro - MC38.K,MC38.K Cell Line,3.81E+06 RLU
same,Total Liver Tissue Luciferin Signal (Photons/s) Ex-vivo - CD1,Liver,4.01E+09 Photons/s
"CCCCCCCCC(CCCCCCCCF)OC(=O)CCCCCCCN(CCO)CCCCCCC(C)C(=O)OCCCCCCCCC(C)C (centres unmarked) [Compound 66, 9-methyldecyl 8-((8-((1-fluoroheptadecan-9-yl)oxy)-8-oxooctyl)(2-hydroxyethyl)amino)-2-methyloctanoate]",Total Luciferin Signal (RLU) In Vitro - AML12,AML12 Cell Line; Table 4,1.16E+06 RLU
same,Total Luciferin Signal (RLU) In Vitro - B16F10,B16F10 Cell Line; Table 4,1.12E+06 RLU
same,Total Luciferin Signal (RLU) In Vitro - MC38.K,MC38.K Cell Line,5.75E+06 RLU
same,Total Liver Tissue Luciferin Signal (Photons/s) Ex-vivo - CD1,Liver,9.44E+09 Photons/s
"CCCCCCCCC(CCCCCCCCF)C(=O)OCCCCCCCN(CCCCO)CCCCCCCOC(=O)CCCCCCCCC(C)C (centres unmarked) [Compound 69, 7-((7-((10-fluoro-2-octyldecanoyl)oxy)heptyl)(4-hydroxybutyl)amino)heptyl 10-methylundecanoate]",Total Luciferin Signal (RLU) In Vitro - AML12,AML12 Cell Line; Table 4,8.05E+06 RLU
same,Total Luciferin Signal (RLU) In Vitro - B16F10,B16F10 Cell Line; Table 4,3.62E+06 RLU
same,Total Luciferin Signal (RLU) In Vitro - MC38.K,MC38.K Cell Line,4.67E+07 RLU
same,Total Liver Tissue Luciferin Signal (Photons/s) Ex-vivo - CD1,Liver,4.64E+09 Photons/s
"CCCCCCCCC(CCCCCCCCF)OC(=O)CCCCCN(CCO)CCCCCC(=O)OCCCCCCCCCCC(C)C (centres unmarked) [Compound 70, 1-fluoroheptadecan-9-yl 6-((2-hydroxyethyl)(6-((11-methyldodecyl)oxy)-6-oxohexyl)amino)hexanoate]",Total Luciferin Signal (RLU) In Vitro - AML12,AML12 Cell Line; Table 4,7.41E+05 RLU
same,Total Luciferin Signal (RLU) In Vitro - B16F10,B16F10 Cell Line; Table 4,7.68E+05 RLU
same,Total Luciferin Signal (RLU) In Vitro - MC38.K,MC38.K Cell Line,5.15E+06 RLU
same,Total Liver Tissue Luciferin Signal (Photons/s) Ex-vivo - CD1,Liver,4.87E+09 Photons/s
"CCCCCCCCCOC(=O)CCCCCCCN(CCCCO)CCCCCCCC(=O)OCC(CCCCCC)CCCCCCCCF (centres unmarked) [Compound 71, 10-fluoro-2-hexyldecyl 8-((4-hydroxybutyl)(8-(nonyloxy)-8-oxooctyl)amino)octanoate]",Total Luciferin Signal (RLU) In Vitro - AML12,AML12 Cell Line; Table 4,4.77E+06 RLU
same,Total Luciferin Signal (RLU) In Vitro - B16F10,B16F10 Cell Line; Table 4,1.67E+06 RLU
same,Total Luciferin Signal (RLU) In Vitro - MC38.K,MC38.K Cell Line,1.57E+07 RLU
same,Total Liver Tissue Luciferin Signal (Photons/s) Ex-vivo - CD1,Liver,1.75E+09 Photons/s
"CCCCCCCCCOC(=O)CCCCCCCN(CCO)CCCCCCCC(=O)OCC(CCCCCC)CCCCCCCCF (centres unmarked) [Compound 72, 10-fluoro-2-hexyldecyl 8-((2-hydroxyethyl)(8-(nonyloxy)-8-oxooctyl)amino)octanoate]",Total Luciferin Signal (RLU) In Vitro - AML12,AML12 Cell Line; Table 4,2.78E+06 RLU
same,Total Luciferin Signal (RLU) In Vitro - B16F10,B16F10 Cell Line; Table 4,7.23E+05 RLU
same,Total Luciferin Signal (RLU) In Vitro - MC38.K,MC38.K Cell Line,5.53E+06 RLU
same,Total Liver Tissue Luciferin Signal (Photons/s) Ex-vivo - CD1,Liver,3.60E+09 Photons/s
"CCCCCCCCCCCCC1CN(CCO)CC(CCCCCCCCCCCC)O1 (centres unmarked) [Compound 90, 2-(2,6-didodecylmorpholino)ethan-1-ol]",Total Spleen Tissue Luciferin Signal (Photons/s) In Vivo-Cd1,Spleen,5.69E+05 Photons/s
same,Total Luciferin Signal (RLU) In Vitro - AML12,AML12 Cell Line; Table 5,2.69E+04 RLU
same,Total Luciferin Signal (RLU) In Vitro - B16F10,B16F10 Cell Line; Table 5,8.93E+04 RLU
same,Total Liver Tissue Luciferin Signal (Photons/s) In Vivo-Cd1,Liver,3.35E+06 Photons/s
"CCCCCCCC/C=C\CCCCCCC1CN(CCO)CC(CCCCCCCCCCCC)O1 (centres unmarked) [Compound 91, (Z)-2-(2-dodecyl-6-(hexadec-7-en-1-yl)morpholino)ethan-1-ol]",Total Spleen Tissue Luciferin Signal (Photons/s) In Vivo-Cd1,Spleen,1.44E+06 Photons/s
same,Total Luciferin Signal (RLU) In Vitro - AML12,AML12 Cell Line; Table 5,1.94E+04 RLU
same,Total Luciferin Signal (RLU) In Vitro - B16F10,B16F10 Cell Line; Table 5,2.02E+05 RLU
same,Total Liver Tissue Luciferin Signal (Photons/s) In Vivo-Cd1,Liver,3.65E+06 Photons/s
"CCCCCCCC/C=C\CCCCCCC1CN(CCO)CC(CCCCCC/C=C\CCCCCCCC)O1 (centres unmarked) [Compound 92, 2-(2,6-di((Z)-hexadec-7-en-1-yl)morpholino)ethan-1-ol]",Total Spleen Tissue Luciferin Signal (Photons/s) In Vivo-Cd1,Spleen,2.05E+06 Photons/s
same,Total Luciferin Signal (RLU) In Vitro - AML12,AML12 Cell Line; Table 5,2.46E+04 RLU
same,Total Luciferin Signal (RLU) In Vitro - B16F10,B16F10 Cell Line; Table 5,8.03E+05 RLU
same,Total Liver Tissue Luciferin Signal (Photons/s) In Vivo-Cd1,Liver,1.07E+07 Photons/s
"CCCCCCCC/C=C\CCCCCCC1CN(CCOC(=O)CCCN(C)C)CC(CCCCCC/C=C\CCCCCCCC)O1 (centres unmarked) [Compound 93, 2-{2,6-bis[(Z)-7-hexadecenyl]-4-morpholinyl}ethyl 4-(dimethylamino)butyrate]",Total Spleen Tissue Luciferin Signal (Photons/s) In Vivo-Cd1,Spleen,2.48E+06 Photons/s
same,Total Luciferin Signal (RLU) In Vitro - AML12,AML12 Cell Line; Table 5,3.05E+07 RLU
same,Total Luciferin Signal (RLU) In Vitro - B16F10,B16F10 Cell Line; Table 5,4.80E+05 RLU
same,Total Luciferin Signal (RLU) In Vitro-MC38,MC38.K Cell Line,3.69E+05 RLU
same,Total Liver Tissue Luciferin Signal (Photons/s) In Vivo-Cd1,Liver,1.72E+06 Photons/s
"CCCCCCCC/C=C\CCCCCCC1CN(CCOC(=O)CCCN(C)C)CC(CCCCCC(=O)OC(CCCCCCCC)CCCCCCCC)O1 (centres unmarked) [Compound 94, heptadecan-9-yl (Z)-6-(4-(2-((4-(dimethylamino)butanoyl)oxy)ethyl)-6-(hexadec-7-en-1-yl)morpholin-2-yl)hexanoate]",Total Spleen Tissue Luciferin Signal (Photons/s) In Vivo-Cd1,Spleen,1.22E+07 Photons/s
same,Total Luciferin Signal (RLU) In Vitro - AML12,AML12 Cell Line; Table 5,1.41E+06 RLU
same,Total Luciferin Signal (RLU) In Vitro - B16F10,B16F10 Cell Line; Table 5,2.82E+06 RLU
same,Total Luciferin Signal (RLU) In Vitro-MC38,MC38.K Cell Line,1.75E+06 RLU
same,Total Liver Tissue Luciferin Signal (Photons/s) In Vivo-Cd1,Liver,1.30E+07 Photons/s
"CCCCCCCC/C=C\CCCCCCC1CN(CCOC(=O)CCN(C)C)CC(CCCCCC/C=C\CCCCCCCC)O1 (centres unmarked) [Compound 95, 2-(2,6-di((Z)-hexadec-7-en-1-yl)morpholino)ethyl 3-(dimethylamino)propanoate]",Total Spleen Tissue Luciferin Signal (Photons/s) In Vivo-Cd1,Spleen,2.69E+06 Photons/s
same,Total Luciferin Signal (RLU) In Vitro - AML12,AML12 Cell Line; Table 5,1.49E+05 RLU
same,Total Luciferin Signal (RLU) In Vitro - B16F10,B16F10 Cell Line; Table 5,2.09E+05 RLU
same,Total Luciferin Signal (RLU) In Vitro-MC38,MC38.K Cell Line,7.12E+04 RLU
same,Total Liver Tissue Luciferin Signal (Photons/s) In Vivo-Cd1,Liver,2.92E+06 Photons/s
"CCCCCCCC/C=C\CCCCCCC1CN(CCCOC(=O)CCN(C)C)CC(CCCCCC/C=C\CCCCCCCC)O1 (centres unmarked) [Compound 96, 3-(2,6-di((Z)-hexadec-7-en-1-yl)morpholino)propyl 3-(dimethylamino)propanoate]",Total Spleen Tissue Luciferin Signal (Photons/s) In Vivo-Cd1,Spleen,6.35E+06 Photons/s
same,Total Luciferin Signal (RLU) In Vitro - AML12,AML12 Cell Line; Table 5,1.49E+05 RLU
same,Total Luciferin Signal (RLU) In Vitro - B16F10,B16F10 Cell Line; Table 5,1.16E+05 RLU
same,Total Luciferin Signal (RLU) In Vitro-MC38,MC38.K Cell Line,1.25E+05 RLU
same,Total Liver Tissue Luciferin Signal (Photons/s) In Vivo-Cd1,Liver,4.34E+06 Photons/s
"CCCCCCCC/C=C\CCCCCCC1CN(CCOC(=O)CCN(C)C)CC(CCCCCC(=O)OC(CCCCCCCC)CCCCCCCC)O1 (centres unmarked) [Compound 97, heptadecan-9-yl (Z)-6-(4-(2-((3-(dimethylamino)propanoyl)oxy)ethyl)-6-(hexadec-7-en-1-yl)morpholin-2-yl)hexanoate]",Total Spleen Tissue Luciferin Signal (Photons/s) In Vivo-Cd1,Spleen,1.60E+07 Photons/s
same,Total Luciferin Signal (RLU) In Vitro - AML12,AML12 Cell Line; Table 5,2.58E+05 RLU
same,Total Luciferin Signal (RLU) In Vitro - B16F10,B16F10 Cell Line; Table 5,2.98E+06 RLU
same,Total Luciferin Signal (RLU) In Vitro-MC38,MC38.K Cell Line,6.42E+05 RLU
same,Total Liver Tissue Luciferin Signal (Photons/s) In Vivo-Cd1,Liver,2.08E+08 Photons/s
"CCCCCCCCC(CCCCCCCC)OC(=O)CCCCCC1CN(CCOC(=O)CCN(C)C)CC(CCCCCC(=O)OC(CCCCCCCC)CCCCCCCC)O1 (centres unmarked) [Compound 100, di(heptadecan-9-yl) 6,6′-(4-(2-((3-(dimethylamino)propanoyl)oxy)ethyl)morpholine-2,6-diyl)dihexanoate]",Total Spleen Tissue Luciferin Signal (Photons/s) In Vivo-Cd1,Spleen,2.92E+07 Photons/s
same,Total Luciferin Signal (RLU) In Vitro - AML12,AML12 Cell Line; Table 5,1.43E+04 RLU
same,Total Luciferin Signal (RLU) In Vitro - B16F10,B16F10 Cell Line; Table 5,6.29E+04 RLU
same,Total Luciferin Signal (RLU) In Vitro-MC38,MC38.K Cell Line,3.18E+04 RLU
same,Total Liver Tissue Luciferin Signal (Photons/s) In Vivo-Cd1,Liver,6.44E+09 Photons/s
"CCCCCCCCCOC(=O)CCCCCC1CN(CCOC(=O)CCN(C)C)CC(CCCCCC(=O)OC(CCCCCCCC)CCCCCCCC)O1 (centres unmarked) [Compound 101, heptadecan-9-yl 6-(4-(2-((3-(dimethylamino)propanoyl)oxy)ethyl)-6-(6-(nonyloxy)-6-oxohexyl)morpholin-2-yl)hexanoate]",Total Spleen Tissue Luciferin Signal (Photons/s) In Vivo-Cd1,Spleen,1.57E+08 Photons/s
same,Total Luciferin Signal (RLU) In Vitro - AML12,AML12 Cell Line; Table 5,9.36E+04 RLU
same,Total Luciferin Signal (RLU) In Vitro - B16F10,B16F10 Cell Line; Table 5,6.73E+04 RLU
same,tolerability,C57BL/6 mice,improved tolerability
same,adverse clinical observations,C57BL/6 mice; compared to Compound 23 LNPs,less adverse clinical observations
same,reduction in white blood cells and lymphocytes in the blood,C57BL/6 mice; compared to Compound 23 LNPs,less of a reduction in white blood cells and lymphocytes
same,Total Luciferin Signal (RLU) In Vitro-MC38,MC38.K Cell Line,6.90E+05 RLU
same,Total Liver Tissue Luciferin Signal (Photons/s) In Vivo-Cd1,Liver,6.70E+08 Photons/s
